According to patent US20240050358A1, “PERSONAL CARE COMPOSITION” (Conopco, Inc., d/b/a UNILEVER, priority 2020, published 2024):

Tested on: interleukin (IL)-6
Test: Human immune cell line THP-1 in vitro assay: IL-6 by ELISA after LPS co-treatment
Type: cell-based
Details: PMA-differentiated THP1-XBlue cells co-treated with E. coli LPS and composition for 24 hours; supernatant ELISA; percentage to LPS-treated cells (=100%); three repeats
Method: Human Immune Cell Line THP-1 In Vitro Assay The following procedure was used to determine the anti-inflammation efficacy: THP1-XBlue™ (Cat No.: thpx-sp, InvivoGen, San Diego, CA) cells were cultured as suspense in RPMI 1640 medium supplemented with 10% fetal bovine serum (FBS), penicillin (10 U/mL)-streptomycin (10 μg/mL) (Gibco, Invitrogen, Carlsbad, CA). Cells were differentiated in 24-well plates at the density of 5×10^5 cells/well with 100 nM phorbol-12-myristate-13-acetate (PMA) for 72 hours. Cells were then co-treated with pure E. coli lipopolysaccharides (LPS) and various compositions in Table 1. […] Expression of IL-6 was calculated as the percentage to LPS-treated cells which was designated as 100%. P value was analysed by Student's t-test comparing combination groups and individual compound groups (expression of IL-6, three repeats for each group).

Structure (SMILES): CCCCCCC(O)CCCCCCCCCCC(=O)O (stereo not shown) [B, 12-hydroxystearic acid]
- Expression of IL-6 (%): 91.9%
